Among the data in US20170303540A1, “NOVEL TRIAZOLE DERIVATIVES” (BAYER CROPSCIENCE AKTIENGESELLSCHAFT, priority 2014, published 2017) are LogP and chromatographic logP values, retold here.

The structures appear in SMILES notation.

One data set in a line: Log P by HPLC on reversed phase columns (EEC directive 79/831 Annex V.A8). To be noted: method [a]: HPLC/LC-MS at pH 2.7, 0.1% formic acid in water / acetonitrile gradient. The data set is classed as physicochemical. How it is done:
Measurement of Log P values for Table 2 was performed according to EEC directive 79/831 Annex V.A8 by HPLC (High Performance Liquid Chromatography) on reversed phase columns with the following methods: ^[a]Measurement of LC-MS was done at pH 2.7 with 0.1% formic acid in water and with acetonitrile (contains 0.1% formic acid) as eluent with a linear gradient from 10% acetonitrile to 95% acetonitrile. […] Lambda-max-values were determined using UV-spectra from 200 nm to 400 nm and the peak values of the chromatographic signals.
On to `OC(Cc1ccc(Cl)cc1Cl)(Cc1cc(Cl)nnc1Cl)Cn1cncn1` (stereo not drawn) [Example I-480], for which the LogP was 2.96^[a].

`CC(C)(CCl)C(O)(Cc1ccnnc1Cl)Cn1cncn1` (stereo not drawn) [Example I-771]: the LogP was 1.70^[a]. Turning to `C=CC(C)(C)C(O)(Cc1ccnnc1Cl)Cn1cncn1` (stereo not drawn) [Example I-592], the LogP was 1.60^[a]. The same measure, in the same setting: the figure for `CCC1(C(O)(Cc2cc(Cl)nnc2Cl)Cn2cncn2)CC1` (stereo not drawn) [Example I-441] is 2.18^[a]; for `OC(Cc1cc(Cl)nnc1Cl)(Cn1cncn1)C1CC1` (stereo not drawn) [Example I-710] it is 1.49^[a].

Take `OC(Cc1ccnnc1Cl)(Cn1cncn1)C1CC1` (stereo not drawn) [Example I-799]: the LogP is 0.84^[a]. On the same count and under the same terms, the figure for `CCC1(C(O)(Cc2ccnnc2Cl)Cn2cncn2)CC1` (stereo not drawn) [Example I-745] is 1.59^[a]; for `CC(C)(CF)C(O)(Cc1ccnnc1Cl)Cn1cncn1` (stereo not drawn) [Example I-593] it is 1.31^[a]. Still for that read-out and setting: the figure for `CC(CF)(CF)C(O)(Cc1ccnnc1Cl)Cn1cncn1` (stereo not drawn) [Example I-530] is 1.28^[a]; for `CC(C)(Cc1ccc(Cl)cc1)C(O)(Cc1ccnnc1Cl)Cn1cncn1` (stereo not drawn) [Example I-368] it is 2.75^[a]; for `OC(Cc1ccc(Cl)cc1Cl)(Cc1ccnnc1Cl)Cn1cncn1` (stereo not drawn) [Example I-444] it is 2.34^[a].

Still in this data set, the particulars now being: reversed phase HPLC columns; method [a]: HPLC/LC-MS at pH 2.7, 0.1% formic acid in water / acetonitrile gradient.
Regarding `CC(C)(C)C(O)(Cc1ccnnc1Cl)Cn1cncn1` (stereo not drawn) [Example I-713, 1-(3-chloropyridazin-4-yl)-3,3-dimethyl-2-(1H-1,2,4-triazol-1-ylmethyl)butan-2-ol], the chromatographic logP is 1.48.

Usually chromatographic logP stands for a lipophilicity value derived from retention on a column.
